Data reported in patent US12084437B2, “Halo-substituted piperidines as orexin receptor modulators” (AstraZeneca AB, priority 2016, dated 2024).

Tests used:
OX1 = molecular target: T1, OX1 (Homo sapiens, UniProt O43613); experiment: Orexin receptor cell-based functional assay, [Ca2+]i by FLIPR, CHO-OX1 cells; conditions: FLIPR calcium, antagonism of EC90 of [OX], read-out: OXI, IC50
T1 construct: expressed in transfected cells; host or cells: CHO (CHO-OX1)
T1 sequence (O43613 1-425): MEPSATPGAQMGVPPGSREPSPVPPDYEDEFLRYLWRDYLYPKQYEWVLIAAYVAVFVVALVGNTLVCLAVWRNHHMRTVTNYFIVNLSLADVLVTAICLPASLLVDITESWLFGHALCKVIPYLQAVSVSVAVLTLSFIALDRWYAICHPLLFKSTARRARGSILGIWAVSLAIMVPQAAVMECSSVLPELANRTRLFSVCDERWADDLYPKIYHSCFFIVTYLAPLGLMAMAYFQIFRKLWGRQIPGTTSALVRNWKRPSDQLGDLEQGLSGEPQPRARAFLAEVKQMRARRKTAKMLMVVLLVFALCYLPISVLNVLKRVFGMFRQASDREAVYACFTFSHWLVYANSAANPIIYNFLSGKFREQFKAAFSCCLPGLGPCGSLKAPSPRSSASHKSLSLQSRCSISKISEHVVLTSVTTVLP
Procedure: (§1) Measurement of [Ca^2+]i using a FLIPR: CHO-OX1 or CHO-OX2 cells were seeded into black-walled clear-base 384-well plates (Corning, catalog #3712) at a density of 20,000 cells per well in F12-K medium supplemented with 10% FBS and then incubated in a 5% CO2, 37° C. incubator overnight to reach 90% confluency. The cells were incubated with equal volume of calcium6 loading buffer (Molecular Devices, Inc.) containing 2.5 mM probenecid at 37° C. for 2 h, followed by test compounds (dose-range 0.1 nM-10 μM) for another 30 min. The plates were then placed into a FLIPR (Molecular Devices, Inc.) to monitor fluorescence (λ excitation 488 nm, λ emission 540 nm) before and after the addition of EC90 of [OX].

OX2 = molecular target: T2, OX2 (Homo sapiens, UniProt O43614); experiment: Orexin receptor cell-based functional assay, [Ca2+]i by FLIPR, CHO-OX2 cells; conditions: FLIPR calcium, antagonism of EC90 of [OX]
T2 construct: expressed in transfected cells; host or cells: CHO (CHO-OX2)
T2 sequence (O43614 1-444): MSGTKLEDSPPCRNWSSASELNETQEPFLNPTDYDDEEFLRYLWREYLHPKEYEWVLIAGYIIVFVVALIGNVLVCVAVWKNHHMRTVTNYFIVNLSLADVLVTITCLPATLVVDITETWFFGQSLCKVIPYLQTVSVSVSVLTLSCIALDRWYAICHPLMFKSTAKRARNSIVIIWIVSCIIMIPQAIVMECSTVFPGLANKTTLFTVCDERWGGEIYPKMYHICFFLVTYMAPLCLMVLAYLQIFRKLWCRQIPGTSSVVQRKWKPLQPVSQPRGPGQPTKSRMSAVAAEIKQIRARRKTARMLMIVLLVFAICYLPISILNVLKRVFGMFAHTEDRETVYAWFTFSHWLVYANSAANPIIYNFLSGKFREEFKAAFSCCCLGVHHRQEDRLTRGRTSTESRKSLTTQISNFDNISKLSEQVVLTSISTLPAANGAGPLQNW
Procedure: as §1, with “[OX]. Results for exemplary compounds of Formulae (I), (Ia), (Ib), (II), (IIa), (III), (IIIa), (IV), (IVa), (V), or (Va) are shown in Table 3.” for “[OX].”

Structure (SMILES)	IC50 (OX1)	IC50 (OX2)
C[C@@H]1CC(F)(F)CN(C(=O)c2nn(C)cc2-c2ncccn2)[C@@H]1CNc1ncc(C(F)(F)F)cn1 [Compound 97, ((2S,3R)-5,5-difluoro-3-methyl-2-(((5-(trifluoromethyl)pyrimidin-2-yl)amino)methyl)piperidin-1-yl)(1-methyl-4-(pyrimidin-2-yl)-1H-pyrazol-3-yl)methanone]	12 nM	> 5000 nM
C[C@@H]1CC(F)(F)CN(C(=O)c2cc(Cl)ccc2-c2ncccn2)[C@@H]1CNc1ncc(C(F)(F)F)cn1 [Compound 56, (5-chloro-2-(pyrimidin-2-yl)phenyl)((2S,3R)-5,5-difluoro-3-methyl-2-(((5-(trifluoromethyl)pyrimidin-2-yl)amino)methyl)piperidin-1-yl)methanone]	7 nM	> 5000 nM
C[C@@H]1CC(F)(F)CN(C(=O)c2nc(C(F)(F)F)ccc2-n2nccn2)[C@@H]1CNc1ccc(C(F)(F)F)cn1 [Compound 203, (3-(2H-1,2,3-triazol-2-yl)-6-(trifluoromethyl)pyridin-2-yl)((2S,3R)-5,5-difluoro-3-methyl-2-(((5-(trifluoromethyl)pyridin-2-yl)amino)methyl)piperidin-1-yl)methanone]	> 5000 nM	3700 nM
C[C@@H]1CC(F)(F)CN(C(=O)c2cc(C#N)ccc2-c2ccc(F)cc2)[C@@H]1CNc1ncc(Cl)cn1 [Compound 53]	29 nM	> 5000 nM
COc1cccc(-c2sc(C)nc2C(=O)N2CC(F)(F)C[C@@H](C)[C@H]2CNc2cnc(C(F)(F)F)cn2)n1 [Compound 151]	11 nM	> 5000 nM
C[C@@H]1CC(F)(F)CN(C(=O)c2nn(C)cc2-c2ccc(F)cc2)[C@@H]1COc1ccc(C(F)(F)F)cn1 [Compound 205, ((2S,3R)-5,5-difluoro-3-methyl-2-(((5-(trifluoromethyl)pyridin-2-yl)oxy)methyl)piperidin-1-yl)(4-(4-fluorophenyl)-1-methyl-1H-pyrazol-3-yl)methanone]	52 nM	> 5000 nM
COc1cccc(-c2sc(C)nc2C(=O)N2CC(F)(F)C[C@@H](C)[C@H]2CNc2cnc(C(F)(F)F)cn2)c1 [Compound 142]	4 nM	> 5000 nM
Cc1ccccc1-c1cn(C)nc1C(=O)N1CC(F)(F)C[C@@H](C)[C@H]1CNc1ncc(C(F)(F)F)cn1 [Compound 24]	385 nM	> 5000 nM
Cc1nc(C(=O)N2CC(F)(F)C[C@@H](C)[C@H]2CNc2ncc(C(F)(F)F)cn2)c(-c2cccc(F)c2)s1 [Compound 67]	5 nM	1110 nM
C[C@@H]1CC(F)(F)CN(C(=O)c2cnn(C)c2-c2ccccn2)[C@@H]1CNc1ncc(C(F)(F)F)cn1 [Compound 95]	> 1000 nM	> 5000 nM
C[C@@H]1CC(F)(F)CN(C(=O)c2cc(Cl)ccc2-n2ncnn2)[C@@H]1CNc1ncc(C(F)(F)F)cn1 [Compound 4]	81 nM	> 5000 nM
C[C@@H]1CC(F)(F)CN(C(=O)c2nn(C)cc2-c2ncc(C(F)(F)F)cn2)[C@@H]1CNc1ncc(C(F)(F)F)cn1 [Compound 226, ((2S,3R)-5,5-difluoro-3-methyl-2-(((5-(trifluoromethyl)pyrimidin-2-yl)amino)methyl)piperidin-1-yl)(1-methyl-4-(5-(trifluoromethyl)pyrimidin-2-yl)-1H-pyrazol-3-yl)methanone]	350 nM	> 5000 nM
Cc1ccc(-n2nccn2)c(C(=O)N2CC(F)(F)C[C@@H](C)[C@H]2CNc2cnc(C(F)(F)F)cn2)n1 [Compound 153]	27 nM	> 5000 nM
Cc1nc(C(=O)N2CC(F)(F)C[C@@H](C)[C@H]2CNc2ncc(C(F)(F)F)cn2)c(-c2ccc(F)cc2)o1 [Compound 84]	130 nM	> 5000 nM

The next lines start with the values.

IC50 (OX1)	IC50 (OX2)	Structure (SMILES)
10 nM	> 5000 nM	Cc1ccc(-c2cn(C)nc2C(=O)N2CC(F)(F)C[C@@H](C)[C@H]2CNc2ncc(C(F)(F)F)cn2)nc1 [Compound 44]
5 nM	> 5000 nM	C[C@@H]1CC(F)(F)CN(C(=O)c2nn(C)cc2-c2ncc(F)cn2)[C@@H]1CNc1ncc(C(F)(F)F)cc1F [Compound 242, ((2S,3R)-5,5-difluoro-2-(((3-fluoro-5-(trifluoromethyl)pyridin-2-yl)amino)methyl)-3-methylpiperidin-1-yl)(4-(5-fluoropyrimidin-2-yl)-1-methyl-1H-pyrazol-3-yl)methanone]
9 nM	> 5000 nM	Cc1nc(C(=O)N2CC(F)(F)C[C@@H](C)[C@H]2CNc2ncc(Cl)cn2)c(-c2ccc(F)cc2)s1 [Compound 69]
4 nM	4140 nM	Cc1ccc(-c2cn(C)nc2C(=O)N2CC(F)(F)C[C@@H](C)[C@H]2CNc2ccc(C(F)(F)F)cn2)cc1 [Compound 175]
> 1000 nM	> 5000 nM	Cc1nc(C(=O)N2CC(F)(F)C[C@@H](C)[C@H]2CNc2ncc(C(F)(F)F)cn2)c(-c2ccccn2)o1 [Compound 87]
2 nM	> 5000 nM	C[C@@H]1CC(F)(F)CN(C(=O)c2nn(C)cc2-c2ccccc2)[C@@H]1CNc1ncc(C(F)(F)F)cn1 [Compound 21]
1700 nM	> 5000 nM	CC(C)n1cc(-c2ncccn2)c(C(=O)N2CC(F)(F)C[C@@H](C)[C@H]2CNc2ncc(C(F)(F)F)cn2)n1 [Compound 237, ((2S,3R)-5,5-difluoro-3-methyl-2-(((5-(trifluoromethyl)pyrimidin-2-yl)amino)methyl)piperidin-1-yl)(1-isopropyl-4-(pyrimidin-2-yl)-1H-pyrazol-3-yl)methanone]
8 nM	> 5000 nM	C[C@@H]1CC(F)(F)CN(C(=O)c2nn(C)cc2-c2ccccn2)[C@@H]1COc1ccc(C(F)(F)F)cn1 [Compound 220, ((2S,3R)-5,5-difluoro-3-methyl-2-(((5-(trifluoromethyl)pyridin-2-yl)oxy)methyl)piperidin-1-yl)(1-methyl-4-(pyridin-2-yl)-1H-pyrazol-3-yl)methanone]
> 2000 nM	> 5000 nM	C[C@@H]1CC(F)(F)CN(C(=O)c2nn(CC(F)(F)F)cc2-c2ncccn2)[C@@H]1CNc1ncc(C(F)(F)F)cn1 [Compound 238, ((2S,3R)-5,5-difluoro-3-methyl-2-(((5-(trifluoromethyl)pyrimidin-2-yl)amino)methyl)piperidin-1-yl)(4-(pyrimidin-2-yl)-1-(2,2,2-trifluoroethyl)-1H-pyrazol-3-yl)methanone]
8 nM	> 5000 nM	C[C@@H]1CC(F)(F)CN(C(=O)c2nn(C)nc2-c2ccc(Cl)cn2)[C@@H]1CNc1ncc(C(F)(F)F)cn1 [Compound 249]
3 nM	> 5000 nM	Cc1c(-c2ncc(F)cn2)c(C(=O)N2CC(F)(F)C[C@@H](C)[C@H]2CNc2ncc(C(F)(F)F)cn2)nn1C [Compound 264, ((2S,3R)-5,5-difluoro-3-methyl-2-(((5-(trifluoromethyl)pyrimidin-2-yl)amino)methyl)piperidin-1-yl)(4-(5-fluoropyrimidin-2-yl)-1,5-dimethyl-1H-pyrazol-3-yl)methanone]
14 nM	> 5000 nM	C[C@@H]1CC(F)(F)CN(C(=O)c2nn(C)cc2-c2cc(Cl)ccn2)[C@@H]1CNc1ncc(C(F)(F)F)cn1 [Compound 227, (4-(4-chloropyridin-2-yl)-1-methyl-1H-pyrazol-3-yl)((2S,3R)-5,5-difluoro-3-methyl-2-(((5-(trifluoromethyl)pyrimidin-2-yl)amino)methyl)piperidin-1-yl)methanone]
